Measured values published in patent publication US20020022647A1, “2-(4-bromo or 4-iodo phenylamino) benzoic acid derivatives” (priority 1997, published 2002).
pIC50: −log10 of the molar value.

What was measured:
[1] = target: GST-MEK (p45MEK) and GST-MAPK (p44MAP kinase) (Homo sapiens, UniProt Q02750); test: Cascade assay for inhibitors of the MAP kinase pathway (In Vitro); assay type: biochemical; settings: incorporation of 32P into myelin basic protein
Protocol: Cascade Assay for Inhibitors of the MAP Kinase Pathway
Incorporation of ^32P into myelin basic protein (MBP) was assayed in the presence of a glutathione S-transferase fusion protein containing p44MAP kinase (GST-MAPK) and a glutathione S-transferase fusion protein containing p45MEK (GST-MEK). The assay solution contained 20 mM HEPES, pH 7.4, 10 mM MgCl2, 1 mM MnCl2, 1 mM EGTA, 50 μM [γ-^32P]ATP, 10 μg GST-MEK0.5 μg GST-MAPK and 40 μg MBP in a final volume of 100 μL. Reactions were stopped after 20 minutes by addition of trichloroacetic acid and filtered through a GF/C filter mat. ^32P retained on the filter mat was determined using a 1205 Betaplate. Compounds were assessed at 10 μM for ability to inhibit incorporation of ^32P.
To ascertain whether compounds were inhibiting GST-MEK or GST MAPK, two additional protocols were employed. In the first protocol, compounds were added to tubes containing GST-MEK, followed by addition of GST-MAPK, MBP and [γ-^32P]ATP. In the second protocol, compounds were added to tubes containing both GST-MEK and GST-MAPK, followed by MBP and [γ-^32P]ATP.

[2] = tested on: activation of MAP kinase in whole cells; test: In Vivo (Cell Culture): whole cell MAP kinase assay; assay type: cell-based
Protocol: Whole Cell MAP Kinase Assay
To determine if compounds were able to block activation of MAP kinase in whole cells, the following protocol was used: Cells were plated in multi-well plates and grown to confluence. Cells were then serum-deprived overnight. Cells were exposed to the desired concentrations of compound or vehicle (DMSO) for 30 minutes, followed by addition of a growth factor, for example, PDGF (100 ng/mL). After a 5-minute treatment with the growth factor, cells were washed with PBS, then lysed in a buffer consisting of 70 mM NaCl, 10 mM HEPES (pH 7.4), 50 mM glycerol phosphate, and 1% Triton X-100. Lysates were clarified by centrifugation at 13,000× g for 10 minutes. Five micrograms of the resulting supernatants were incubated with 10 μg microtubule associated protein-2 (Map2) for 15 minutes at 30° C. in a final volume of 25 μL containing 50 mM Tris (pH 7.4), 10 mM MgCl2, 2 mM EGTA and 30 uM [γ-^32P]ATP. Reactions were terminated by addition of Laemmli sample buffer. Phosphorylated Map2 was resolved on 7.5% acrylamide gels and incorporated radioactivity determined by autoradiography and subsequent excision of the bands followed by scintillation counting.

Sequence of GST-MEK (p45MEK) and GST-MAPK (p44MAP kinase) (Q02750 whole entry): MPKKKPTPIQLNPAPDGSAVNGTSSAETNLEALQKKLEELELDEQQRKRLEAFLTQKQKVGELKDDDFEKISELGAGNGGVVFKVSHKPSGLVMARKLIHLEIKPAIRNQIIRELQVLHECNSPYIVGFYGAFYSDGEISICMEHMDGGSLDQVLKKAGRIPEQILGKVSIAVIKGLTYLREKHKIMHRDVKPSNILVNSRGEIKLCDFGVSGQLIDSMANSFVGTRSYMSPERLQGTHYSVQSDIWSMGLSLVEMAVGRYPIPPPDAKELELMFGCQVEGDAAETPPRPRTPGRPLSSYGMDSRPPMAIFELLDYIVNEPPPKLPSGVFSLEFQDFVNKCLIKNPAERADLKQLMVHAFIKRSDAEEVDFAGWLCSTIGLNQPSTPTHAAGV

Compound `Cc1cc(I)ccc1Nc1ccc(Cl)cc1C(=O)NCCO` [Example 31, 5-Chloro-N-(2-hydroxyethl)-2-(4-iodo-2-methyl-phenylamino)-benzamide] has an IC50 [1] of 226 nM and a melting point of 120 to 121 °C.
In the case of `Cc1cc(I)ccc1Nc1ccc(Cl)cc1C(=O)NCC(=O)O` [Example 40, [5-Chloro-2-(4-iodo-2-methyl-phenylamino)-benzoylamno]-acetic acid], the inhibition at 30 µM ([2]; at 30 μM) was 30% and the IC50 [1] was 651 nM.
Compound `Cc1cc(I)ccc1Nc1cc(F)ccc1CO` [Example 49, 4-Fluoro-2-(4-iodo-2-methyl-2henylamino)-benzyl alcohol] has an IC50 [1] of 418 nM and a melting point of 99 to 100.5 °C.
Compound `Cc1cc(I)ccc1Nc1c(C(=O)NCCO)cc(Br)c(F)c1F` [Example 53, 5-Bromo-3,4-difluoro-N-(2-hydroxy-ethyl)-2-(4-iodo-2-methyl-phenylamino)-benzamide] has a pIC50 [2] of 6.27 and an IC50 [1] of 47 nM.
`Cc1cc(I)ccc1Nc1ccc([N+](=O)[O-])cc1C(=O)NCc1ccncc1` [Example 91, 2-(4-Iodo-2-methyl-phenylamino)-5-nitro-N-pyridin-4-yl methyl-benzamide] gave an IC50 [1] of 2071 nM.
For `Cc1cc(I)ccc1Nc1ccc(Br)cc1C(=O)NCCCN1CCN(CCO)CC1` [Example 92, 5-Bromo-N-{3-[4-(2-hydroxy-ethyl)-piperazin-1-yl]-propyl}-2-(4-iodo-2-methyl-phenylamino)-benzamide], the IC50 [1] was 253 nM.
`CCN(CC)CCNC(=O)c1cc(Cl)ccc1Nc1ccc(I)cc1C` [Example 93, 5-Chloro-N-(2-diethylamino-ethyl)-2-(4-iodo-2-methyl-phenylamino)-benzamide] gave an IC50 [1] of 521 nM.
With `Cc1cc(I)ccc1Nc1ccc([N+](=O)[O-])cc1C(=O)N1CCC(O)C1` (stereo not drawn) [Example 95, (3-Hydroxy-pyrrolidin-1-yl)-[2-(4-iodo-2-methyl-phenylamino)-5-nitro-phenyl]-] the IC50 [1] was 1001 nM.
Work on `Cc1cc(I)ccc1Nc1ccc(Cl)cc1C(=O)NCCN1CCCC1` [Example 96, 5-Chloro-2-(4-iodo-2-methyl-phenylamino)-N-(2-pyrrolidin-1-yl-ethyl)-benzamide] yielded an IC50 [1] of 374 nM.
`Cc1cc(I)ccc1Nc1ccc(Br)cc1C(=O)N1CCC(O)C1` (stereo not drawn) [Example 100, [5-Bromo-2-(4-iodo-2-methyl-phenylamino)-phenyl]-(3-hydroxy-pyrrolidin-1-yl)-] showed an IC50 [1] of 1994 nM.
For `Cc1cc(I)ccc1Nc1ccc([N+](=O)[O-])cc1C(=O)NC1CCCCC1` [Example 184, N-Cyclohexyl-2-(4-iodo-2-methyl-phenylamino)-5-nitro-benzamide], the IC50 [1] was 278 nM.
With `Cc1cc(I)ccc1Nc1ccc(F)cc1C(=O)NOCc1ccccc1` [Example 186, N-Benzy1oxy-5-fluoro-2-(4-iodo-2-methyl-phenylamino)-benzamide] the pIC50 [1] was 6.26.
For `Cc1cc(I)ccc1Nc1ccc(Cl)cc1C(=O)NCCO` [Example 187, 5-Chloro-N-(2-hydroxy-ethyl)-2-(4-iodo-2-methyl-phenylamino)-benzamide], the IC50 [1] was 561 nM.
In the case of `Cc1cc(I)ccc1Nc1ccc(Br)cc1C(=O)NCCO` [Example 188, 5-Bromo-N-(2-hydroxy-ethyl)-2-(4-iodo-2-methyl-phenylamino)-benzamide], the IC50 [1] was 771 nM.
For `Cc1cc(I)ccc1Nc1ccc([N+](=O)[O-])cc1C(=O)N(C)c1ccccc1` [Example 189, 2-(4-Iodo-2-methyl-phenylamino)-N-methyl-5-nitro-N-phenyl-benzamide], the IC50 [1] was 859 nM.
Compound `Cc1cc(I)ccc1Nc1ccc(Cl)cc1C(=O)N(C)c1ccccc1` [Example 190, 5-Chloro-2-(4-iodo-2-methyl-phenylamino)-N-methyl-N-phenyl-benzamide] has an IC50 [1] of 921 nM.
`Cc1cc(I)ccc1Nc1ccc(I)cc1C(=O)NCCO` [Example 191, N-(2-Hydroxy-ethyl)-5-iodo-2-(4-iodo-2-methyl-phenylamino)-benzamide] showed an IC50 [1] of 1355 nM.
In the case of `Cc1cc(I)ccc1Nc1ccc(Cl)cc1C(=O)NC1CC1` [Example 192, 5-Chloro-N-cyclopropyl-2-(4-iodo-2-methyl-phenylamino)-benzamide], the IC50 [1] was 1797 nM.
In the case of `C=CCNC(=O)c1cc(Cl)ccc1Nc1ccc(I)cc1C` [Example 193, N-Allyl-5-chloro-2-(4-iodo-2-methyl-phenylamino)-benzamide], the IC50 [1] was 2902 nM.
`Cc1cc(I)ccc1Nc1ccc(F)cc1C(=O)N(C)c1ccccc1` [Example 194, 5-Fluoro-2-(4-iodo-2-methyl-phenylamino)-N-methyl-N-phenyl-benzamide] gave an IC50 [1] of 4952 nM.
With `Cc1cc(I)ccc1Nc1ccc([N+](=O)[O-])cc1C(=O)NCCO` [Example 195, N-(2-Hydroxy-ethyl)-2-(4-iodo-2-methyl-phenylamino)-s-nitro-benzamide] the pIC50 [1] was 4.89.
For `Cc1cc(I)ccc1Nc1ccccc1-c1nnn[nH]1` [Example 208], the IC50 [1] was 1215 nM and the melting point was 231 °C (dec.).
`Cc1cc(I)ccc1Nc1ccc([N+](=O)[O-])cc1-c1nnn[nH]1` [Example 209] showed an IC50 [1] of 1372 nM and a melting point of 205 to 208 °C.
Work on `O=C(O)c1cc(Br)c(F)c(F)c1Nc1ccc(I)cc1Cl` [Example 220, 5-Bromo-2-(2-chloro-4-iodo-phenylamino)-3,4-difluoro-benzoic acid] yielded an IC50 [1] of 29 nM.
